Experimental data from patent US20260028354A1, “TETRAHYDRONAPHTHALENE DERIVATIVES AS ESTROGEN RECEPTOR DEGRADERS” (REGENT OF THE UNIVERSITY OF MICHIGAN, priority 2022, published 2026).
Read-outs that look alike come from different tables or passages of the source.

How the values were obtained:
ER = ER (Homo sapiens (Human), UniProt P03372); experiment: In-cell western blot analysis of ER for "B" compounds; assay type: cell-based; conditions: 16 hours, read-out: ICW DC50
In short: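 In-cell western: fixed cells stained with primary antibodies (2 h, RT), then anti-rabbit-680 and anti-mouse-800 secondaries (1:1000, 1 h, RT), imaged on a LI-COR plate reader. Relative ER level in treated wells expressed against untreated and DMSO-treated wells set as 100%.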

[1] = Cell growth assay (WST-8) for "B" compounds; assay type: cell-based; conditions: read-out: Cell growth Inhibition in T47D cell line IC50
In short: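 Cells seeded at 1500/well overnight, then exposed to compounds for 4 days. 10% WST-8 added for 2.5 h at 37 °C and absorbance read at 450 nm. Growth given as absorbance relative to vehicle control, from three repeats.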

Sequence of ER (P03372 whole entry): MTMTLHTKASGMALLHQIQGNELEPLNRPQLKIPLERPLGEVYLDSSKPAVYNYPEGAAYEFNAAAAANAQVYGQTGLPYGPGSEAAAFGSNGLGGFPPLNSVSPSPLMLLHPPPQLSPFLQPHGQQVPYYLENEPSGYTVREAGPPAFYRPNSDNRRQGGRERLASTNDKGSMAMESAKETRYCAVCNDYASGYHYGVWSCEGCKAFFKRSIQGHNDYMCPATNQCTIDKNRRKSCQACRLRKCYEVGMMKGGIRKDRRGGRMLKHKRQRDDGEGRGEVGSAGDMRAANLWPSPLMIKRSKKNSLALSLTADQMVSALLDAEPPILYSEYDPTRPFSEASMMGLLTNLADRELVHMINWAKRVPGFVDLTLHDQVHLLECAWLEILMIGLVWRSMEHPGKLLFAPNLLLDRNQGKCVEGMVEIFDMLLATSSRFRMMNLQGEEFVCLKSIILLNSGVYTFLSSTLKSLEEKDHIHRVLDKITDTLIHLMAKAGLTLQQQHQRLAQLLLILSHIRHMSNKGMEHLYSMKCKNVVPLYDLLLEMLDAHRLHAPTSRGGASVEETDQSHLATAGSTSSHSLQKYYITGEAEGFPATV

| Structure (SMILES) | DC50 (ER) [nM] | IC50 ([1]; T47D, T47D cell line) [nM] | IC50 ([1]; T47D) [nM] | IC50 ([1]; T47D cell line) [nM] |
| --- | --- | --- | --- | --- |
| O=C1CCC(N2Cc3c(ccc4c3OC[C@H]3CN(C[C@@H]5CCN(c6ccc([C@@H]7c8ccc(O)cc8CC[C@@H]7c7ccccc7)cc6)C5)CCN43)C2=O)C(=O)N1 (stereo partly drawn) [Compound B215, 3-((R)-7-(((S)-1-(4-((1R,2S)-6-hydroxy-2-phenyl-1,2,3,4-tetrahydronaphthalen-1-yl)phenyl)pyrrolidin-3-yl)methyl)-1-oxo-1,3,5,5a,6,7,8,9-octahydro-2H-pyrazino[1′,2′:4,5][1,4]oxazino[2,3-e]isoindol-2-yl)piperidine-2,6-dione] | 10 to 100 | 1 to 10 | – | – |
| O=C1CCC(N2Cc3c(ccc4c3OCC43CCN(CC4COC5(CN(c6ccc([C@@H]7c8ccc(O)cc8CC[C@@H]7c7ccccc7)cc6)C5)OC4)CC3)C2=O)C(=O)N1 (stereo partly drawn) [Compound B346, 3-(1′-((2-(4-((1R,2S)-6-hydroxy-2-phenyl-1,2,3,4-tetrahydronaphthalen-1-yl)phenyl)-5,9-dioxa-2-azaspiro[3.5]nonan-7-yl)methyl)-6-oxo-6,8-dihydro-2H,7H-spiro[furo[2,3-e]isoindole-3,4′-piperidin]-7-yl)piperidine-2,6-dione] | 10 to 100 | – | 1 to 10 | – |
| O=C1CCC(N2Cc3cc4c(cc3C2=O)CN(CC2COC3(CCN(c5ccc([C@@H]6c7ccc(O)cc7CC[C@@H]6c6ccccc6)cc5)CC3)C2)C4)C(=O)N1 (stereo partly drawn) [Compound B352, 3-(6-((8-(4-((1R,2S)-6-hydroxy-2-phenyl-1,2,3,4-tetrahydronaphthalcn-1-yl)phcnyl)-1-oxa-8-azaspiro[4.5]decan-3-yl)methyl)-1-oxo-3,5,6,7-tetrahydropyrrolo[3,4-f]isoindol-2(1H)-yl)piperidine-2,6-dione] | 10 to 100 | – | – | 1 to 10 |
| O=C1CCC(N2Cc3cc4c(cc3C2=O)OC[C@@H]2CN(CC(=O)N3CCC5(C3)CN(c3ccc([C@@H]6c7ccc(O)cc7CC[C@@H]6c6ccccc6)cc3)C5)CCN42)C(=O)N1 (stereo partly drawn) [Compound B152, 3-((S)-3-(2-(2-(4-((1R,2S)-6-hydroxy-2-phenyl-1,2,3,4-tetrahydronaphthalen-1-yl)phenyl)-2,6-diazaspiro[3.4]octan-6-yl)-2-oxoethyl)-8-oxo-1,2,3,4,4a,5,8,10-octahydro-9H-pyrazino[1′,2′:4,5][1,4]oxazino[2,3-f]isoindol-9-yl)piperidine-2,6-dione] | < 10 | < 1 | – | – |
| O=C1CC[C@H](N2Cc3cc4c(cc3C2=O)OC[C@H](CN2CCC3(CC2)CCN(c2ccc([C@@H]5c6ccc(O)cc6CC[C@@H]5c5ccccc5)cc2)CC3)O4)C(=O)N1 [Compound B391, 3-((S)-2-((9-(4-((1R,2S)-6-hydroxy-2-phenyl-1,2,3,4-tetrahydronaphthalen-1-yl)phenyl)-3,9-diazaspiro[5.5]undecan-3-yl)methyl)-6-oxo-2,3,6,8-tetrahydro-7H-[1,4]dioxino[2,3-f]isoindol-7-yl)piperidine-2,6-dione] | > 100 | 1 to 10 | – | – |
| O=C1CCC(N2Cc3c(ccc4c3OCC43CCN(C(=O)CN4CC5(CC(Nc6ccc([C@@H]7c8ccc(O)cc8CC[C@@H]7c7ccccc7)cc6)C5)C4)CC3)C2=O)C(=O)N1 (stereo partly drawn) [Compound B168, 3-(1′-(2-(6-((4-((1R,2S)-6-hydroxy-2-phenyl-1,2,3,4-tetrahydronaphthalen-1-yl)phenyl)amino)-2-azaspiro[3.3]heptan-2-yl)acetyl)-6-oxo-6,8-dihydro-2H,7H-spiro[furo[2,3-e]isoindole-3,4′-piperidin]-7-yl)piperidine-2,6-dione] | < 10 | < 1 | – | – |
| O=C1CC[C@H](NC(=O)c2ccc(N3CCN(CC4CCN(c5ccc([C@@H]6c7ccc(O)cc7CC[C@@H]6c6ccccc6)cc5)CC4)CC3)cn2)C(=O)N1 [Compound B316, N-((S)-2,6-dioxopiperidin-3-yl)-5-(4-((1-(4-((1R,2S)-6-hydroxy-2-phenyl-1,2,3,4-tetrahydronaphthalen-1-yl)phenyl)piperidin-4-yl)methyl)piperazin-1-yl)picolinamide] | 10 to 100 | 1 to 10 | – | – |
| O=C1CC[C@H](NC(=O)c2ccc3c(n2)OC[C@H]2CN(CC4CCC5(CCN(c6ccc([C@@H]7c8ccc(O)cc8CC[C@@H]7c7ccccc7)cc6)CC5)C4)CCN32)C(=O)N1 (stereo partly drawn) [Compound B365, (4aR)-N-((S)-2,6-dioxopiperidin-3-yl)-3-((8-(4-((1R,2S)-6-hydroxy-2-phenyl-1,2,3,4-tetrahydronaphthalen-1-yl)phenyl)-8-azaspiro[4.5]decan-2-yl)methyl)-1,2,3,4,4a,5-hexahydropyrazino[1,2-d]pyrido[2,3-b][1,4]oxazine-8-carboxamide] | 10 to 100 | > 10 | – | – |

Continued, in another order:

| DC50 (ER) [nM] | Structure (SMILES) | IC50 ([1]; T47D, T47D cell line) [nM] | IC50 ([1]; T47D) [nM] | IC50 ([1]; T47D cell line) [nM] |
| --- | --- | --- | --- | --- |
| < 10 | O=C1CCC(N2Cc3cc4c(cc3C2=O)OC[C@@H]2CN(CC3COC5(CCN(c6ccc([C@@H]7c8ccc(O)cc8CC[C@@H]7c7ccccc7)cc6)CC5)OC3)CCN42)C(=O)N1 (stereo partly drawn) [Compound B242, 3-((S)-3-((9-(4-((1R,2S)-6-hydroxy-2-phenyl-1,2,3,4-tetrahydronaphthalen-1-yl)phenyl)-1,5-dioxa-9-azaspiro[5.5]undecan-3-yl)methyl)-8-oxo-1,2,3,4,4a,5,8,10-octahydro-9H-pyrazino[1′,2′:4,5][1,4]oxazino[2,3-f]isoindol-9-yl)piperidine-2,6-dione] | < 1 | – | – |
| < 10 | O=C1CC[C@H](N2Cc3c(ccc4c3OC[C@H]3CN(CC(=O)OC5CCN(c6ccc([C@@H]7c8ccc(O)cc8CC[C@@H]7c7ccccc7)cc6)CC5)CCN43)C2=O)C(=O)N1 [Compound B341] | < 1 | – | – |
| < 10 | O=C1CCC(N2Cc3cc4c(cc3C2=O)OC[C@@H]2CN(C(=O)[C@H]3CC[C@H](CN5CCN(c6ccc([C@@H]7c8ccc(O)cc8CC[C@@H]7c7ccccc7)cc6)CC5)CC3)CCN42)C(=O)N1 (stereo partly drawn) [Compound B141, 3-((S)-3-((1R,4S)-4-((4-(4-((1R,2S)-6-hydroxy-2-phenyl-1,2,3,4-tetrahydronaphthalen-1-yl)phenyl)piperazin-1-yl)methyl)cyclohexane-1-carbonyl)-8-oxo-1,2,3,4,4a,5,8,10-octahydro-9H-pyrazino[1′,2′:4,5][1,4]oxazino[2,3-f]isoindol-9-yl)piperidine-2,6-dione] | < 1 | – | – |
| > 100 | CN(CC1CCN(c2ccc([C@@H]3c4ccc(O)cc4CC[C@@H]3c3ccccc3)cc2)CC1)[C@H]1C[C@H]2COc3cc4c(cc3N2C1)CN(C1CCC(=O)NC1=O)C4=O (stereo partly drawn) [Compound B310, 3-((2S,3aS)-2-(((1-(4-((1R,2S)-6-hydroxy-2-phenyl-1,2,3,4-tetrahydronaphthalen-1-yl)phenyl)piperidin-4-yl)methyl)(methyl)amino)-7-oxo-2,3,3a,4,7,9-hexahydro-1H,8H-pyrrolo[1′,2′:4,5][1,4]oxazino[2,3-f]isoindol-8-yl)piperidine-2,6-dione] | < 1 | – | – |
| < 10 | O=C1CCC(N2Cc3cc4c(cc3C2=O)OC[C@@H]2CN(CC(=O)N3CC5(CCN(c6ccc([C@@H]7c8ccc(O)cc8CC[C@@H]7c7ccccc7)cc6)C5)C3)CCN42)C(=O)N1 (stereo partly drawn) [Compound B209, 3-((S)-3-(2-(6-(4-((1R,2S)-6-hydroxy-2-phenyl-1,2,3,4-tetrahydronaphthalen-1-yl)phenyl)-2,6-diazaspiro[3.4]octan-2-yl)-2-oxoethyl)-8-oxo-1,2,3,4,4a,5,8,10-octahydro-9H-pyrazino[1′,2′:4,5][1,4]oxazino[2,3-f]isoindol-9-yl)piperidine-2,6-dione] | < 1 | – | – |
| 10 to 100 | O=C1CCC(N2Cc3cc4c(cc3C2=O)OC[C@@H]2CN(CC(=O)N3CCC5(CC3)CCN(c3ccc([C@@H]6c7ccc(O)cc7CC[C@@H]6c6ccccc6)cn3)CC5)CCN42)C(=O)N1 (stereo partly drawn) [Compound B148, 3-((S)-3-(2-(9-(5-(cis-6-hydroxy-2-phenyl-1,2,3,4-tetrahydronaphthalen-1-yl)pyridin-2-yl)-3,9-diazaspiro[5.5]undecan-3-yl)-2-oxoethyl)-8-oxo-1,2,3,4,4a,5,8,10-octahydro-9H-pyrazino[1′,2′: 4,5][1,4]oxazino[2,3-f]isoindol-9-yl)piperidine-2,6-dione] | 1 to 10 | – | – |
| < 10 | O=C1CCC(N2C(=O)c3cc4c(cc3C2=O)CN(CC(=O)N2CC3(CC(Nc5ccc([C@@H]6c7ccc(O)cc7CC[C@@H]6c6ccccc6)cc5)C3)C2)C4)C(=O)N1 (stereo partly drawn) [Compound B163, 2-(2,6-dioxopiperidin-3-yl)-6-(2-(6-((4-((1R,2S)-6-hydroxy-2-phenyl-1,2,3,4-tetrahydronaphthalen-1-yl)phenyl)amino)-2-azaspiro[3.3]heptan-2-yl)-2-oxoethyl)-6,7-dihydropyrrolo[3,4-f]isoindole-1,3(2H,5H)-dione] | 1 to 10 | – | – |
| > 100 | O=C1CC[C@H](NC(=O)c2ccc3c(c2)OC[C@@H]2CN(CC4CCN(c5ccc([C@@H]6c7ccc(O)cc7CC[C@@H]6c6ccccc6)cc5)CC4)CCN32)C(=O)N1 [Compound B257, (S)-N-((S)-2,6-dioxopiperidin-3-yl)-3-((1-(4-((1R,2S)-6-hydroxy-2-phenyl-1,2,3,4-tetrahydronaphthalen-1-yl)phenyl)piperidin-4-yl)methyl)-1,2,3,4,4a,5-hexahydrobenzo[b]pyrazino[1,2-d][1,4]oxazine-8-carboxamide] | 1 to 10 | – | – |
| > 100 | CN1C[C@@H]2CN(CC3COC4(CCN(c5ccc([C@@H]6c7ccc(O)cc7CC[C@@H]6c6ccccc6)cc5)CC4)C3)CCN2c2cc3c(cc21)C(=O)N(C1CCC(=O)NC1=O)C3 (stereo partly drawn) [Compound B234, 3-((4aS)-3-((8-(4-((1R,2S)-6-hydroxy-2-phenyl-1,2,3,4-tetrahydronaphthalen-1-yl)phenyl)-1-oxa-8-azaspiro[4.5]decan-3-yl)methyl)-6-methyl-8-oxo-2,3,4,4a,5,6,8,10-octahydropyrazino[1,2-a]pyrrolo[3,4-g]quinoxalin-9(1H)-yl)piperidine-2,6-dione] | < 1 | – | – |
